Assay results reported in article PMC9821843, “Powerful Potential of Polyfluoroalkyl-Containing 4-Arylhydrazinylidenepyrazol-3-ones for Pharmaceuticals” (Molecules, 2022).
Marks after values point to notes of the source that are not given here.

What was measured:
[1] = Ferric reducing antioxidant power (FRAP) assay; details: 20 μM; n.a. = inactive
From the text: The FRAP assay measures the ability of anti-oxidants to reduce the ferric 2,4,6-tripyridyl-s-triazine complex [Fe(TPTZ)2]^3+ to the intensely blue ferrous colored complex [Fe(TPTZ)2]^2+ with an absorption maximum at λ = 593 nm. The reducing ability of a compound is an indicator of its potential anti-oxidant activity. 2,4,6-Tris(pyridin-2-yl)-1,3,5-triazine (TPTZ), FeCl3·6H2O, Trolox and DMSO were obtained from Sigma-Aldrich Chemical Co (St. Louis, MO, USA).
The ferric reducing ability of the compounds was determined by the method in microplate adapted version described in [116]. The FRAP reagent was prepared by mixing acetate buffer (0.3 M, pH 3.6), TPTZ (10 mM in 40 mM HCl) and FeCl3·6H2O (20 mM in distilled water) in a ratio of 10:1:1 immediately before use. Compounds were dissolved in DMSO and tested in the concentration 20 μM. The solvent content in the reaction mixture was 4% (v/v). The test compounds (10 μL of 0.5 mM solution) were added to the FRAP reagent solution (240 μL) and mixed thoroughly. The reaction was carried out at 37 °C in the dark; the incubation time was 1 h. The absorbance at 600 nm was monitored spectrophotometrically by a FLUOStar OPTIMA microplate reader (BMG Labtech, Ortenberg, Germany) at 37 °C. Trolox was used as a reference compound. Values were obtained from four replicates of each sample in three independent experiments.
The ferric reducing ability of compounds was expressed as TE units (antioxidant activity in Trolox equivalent), the values calculated as the ratio of the concentrations of Trolox and the test compound resulting in the same effect. The calculations were carried out using Origin 6.1 for Windows. Results were presented as mean ± SEM, calculated using GraphPad Prism version 6.05 for Windows, GraphPad Software.

[2] = target: porcine liver carboxylesterase (CES, EC 3.1.1.1) (Sus scrofa, UniProt Q29550); assay: Porcine liver CES inhibition kinetics (Lineweaver-Burk); type: biochemical; details: mixed type inhibition; mean ± SEM
porcine liver carboxylesterase (CES, EC 3.1.1.1), sequence (Q29550 19-566): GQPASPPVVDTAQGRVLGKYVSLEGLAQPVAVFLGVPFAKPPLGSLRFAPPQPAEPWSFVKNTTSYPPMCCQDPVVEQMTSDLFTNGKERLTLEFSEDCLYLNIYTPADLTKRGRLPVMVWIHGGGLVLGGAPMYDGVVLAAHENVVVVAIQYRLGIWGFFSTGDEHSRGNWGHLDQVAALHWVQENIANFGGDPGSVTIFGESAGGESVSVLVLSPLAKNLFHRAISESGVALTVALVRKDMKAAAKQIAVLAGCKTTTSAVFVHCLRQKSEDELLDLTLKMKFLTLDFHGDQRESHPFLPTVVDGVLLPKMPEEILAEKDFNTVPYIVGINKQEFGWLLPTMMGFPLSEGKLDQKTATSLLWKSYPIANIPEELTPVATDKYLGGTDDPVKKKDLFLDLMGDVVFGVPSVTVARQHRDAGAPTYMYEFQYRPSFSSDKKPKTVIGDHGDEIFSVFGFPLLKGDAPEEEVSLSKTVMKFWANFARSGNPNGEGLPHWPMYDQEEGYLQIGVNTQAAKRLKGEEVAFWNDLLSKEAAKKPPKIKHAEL
Method: To elucidate the inhibition mechanisms for active compounds, porcine liver CES residual activities were determined in the presence of 3 increasing concentrations of a test compound and 5–6 decreasing concentrations of the substrates. Test compounds were incubated with the enzymes at 25 °C for 5 min, followed by the addition of substrates. A parallel control was made for an assay of the rate of hydrolysis of the same concentrations of substrates in solutions with no inhibitor. Linear regression of 1/V versus 1/[S] double-reciprocal (Lineweaver-Burk) plots was used to determine the inhibition constants for the competitive component (Ki) and noncompetitive component (αKi).
Measurements were performed in a Bio-Rad Benchmark Plus microplate reader. Each experiment was performed in triplicate. Plots, linear regressions and values of IC50, were determined using Origin 6.1 for Windows, OriginLab (Northampton, MA, USA). Results were calculated using GraphPad Prism version 6.05 for Windows, GraphPad Software (La Jolla, CA, USA) and presented as mean ± SEM.

Vero cells = assay: Live cell visualization (fluorescent staining, confocal microscopy); type: cell-based, African green monkey; details: 1 × 10^–4 M, laser excitation
From the text: Tartrazine, having 4-(4-sulfonatophenylazo)-5-pyrazolone moiety, is widely used as a synthetic lemon-yellow azo dye for food coloring. Many reports about the pyrazolone-based dyes for different purposes have been published to date. However, there are no reports describing 4-AHPs’ use for the biovisualization of living cells. In this work, we studied the potential of compounds 5f, 6a, 9a for the fluorescent visualization of the Vero cell structure (African green monkey kidney epithelium). Cells stained with the compound at a concentration of 1 × 10^–4 M in DMEM were examined using an LSM-710 laser scanning confocal microscope.
The suitability of substances for fluorescent imaging of cellular structures was studied on Vero cell culture (African green monkey kidney epithelium) and CHO (Chinese hamster ovary). The culture is supported in DMEM (Gibco, Uoltem, USA) with addition of 10% fetal bovine serum (Gibco, Uoltem, USA) and a mixture of gentamicin and streptomycin (Biolot, Moscow, Russia).
The cells were cultivated into specialized Petri dishes with a glass bottom for staining. Staining was carried out with substances at a concentration of 1 × 10^–4 M. For that, the solution of substances was preliminarily diluted with DMSO (Biolot, Moscow, Russia) to a concentration of 1 × 10^–3 M and then with DMEM to the required concentration. Incubation with the substance was carried out for half an hour in an incubator, in the dark at a temperature of 37 °C. […]
The stained cells with the substance were examined using an LSM-710 laser scanning confocal microscope (Carl Zeiss, Oberkochen, Germany). […] Fluorescence was excited by lasers with different wavelengths and registered in lambda mode. This mode gets to collect a full spectrum image by analyzing the intensity of fluorescence in different ranges. […] Taking images in this mode also makes it possible to obtain the fluorescence spectrum of the test substance in the cell. However, a confocal microscope is not a spectrofluorometer and the resulting spectra can have very poor quality, especially at low fluorescence intensity.

Sprague-Dawley rats = assay: Carrageenan-induced paw edema model (anti-inflammatory activity); type: in vivo; details: ip
Method: Anti-inflammatory activity was studied in Sprague-Dawley rats (3 male and 3 female animals per group) by using the common carrageenan-induced paw edema model. The investigated compounds in 1% starch mucilage were intraperitoneally administered at the corresponding dose to a treated group of rodents 30 min before the injection of 0.1 mL of freshly prepared 1% carrageenan (λ-carrageenan, type IV; Sigma Aldrich, an affiliate of Merck KGaA, Darmstadt, Germany) solution in the right hind paw plantar surface. The negative control group was treated with 1% starch mucilage solution only. Diclofenac sodium (10 mg/kg in 1% starch mucilage solution) was used as a reference drug. Paw volumes were measured oncometrically with water plethysmometer (TSE Volume Meter, Bad Homburg, Germany) before carrageenan administration (“zero time”) and at 1st, 3rd, 5th and 24th h after its injection. An anti-inflammatory activity of the sample at a certain time point was calculated in two steps. First, the percentage of an edema increment (i.e., relative volume change for the inflamed paw vs. “zero time” value) both in the negative control group (Pc) and in the treated group (Ptr) were calculated for this time point for each animal. The difference between treated and control group was considered significant at p < 0.05. Then, for such cases, swelling inhibition was calculated according to the formula: 100% (Pc − Ptr)/Pc and considered as a measure of anti-inflammatory activity of the sample.

For `O=C1NN=C(C(F)(F)F)/C1=N/Nc1ccccc1` [5a, (Z)-4-(2-Phenylhydrazinylidene)-5-(trifluoromethyl)-2,4-dihydro-3H-pyrazol-3-one], the “FRAP (TE, antioxidant activity in Trolox equivalents)” value (“FRAP” below) [1] was 0.09 ± 0.01 and the “αKi (non-competitive inhibition constant), CES” value [2] was 0.255 ± 0.013 µM.
For `Cc1ccc(N/N=C2\C(=O)NN=C2C(F)(F)F)cc1` [5b, (4Z)-4-[2-(4-Methylphenyl)hydrazinylidene]-5-(trifluoromethyl)-2,4-dihydro-3H-pyrazol-3-one], the “FRAP” value [1] was 0.05 ± 0.02.
In the case of `Cc1ccc(N/N=C2\C(=O)N(C)N=C2C(F)(F)F)cc1` [5d, (4Z)-2-Methyl-4-[2-(4-methylphenyl)hydrazinylidene]-5-(trifluoromethyl)-2,4-dihydro-3H-pyrazol-3-one], the “αKi (non-competitive inhibition constant), CES” value [2] is reported as 3.98 ± 0.31 µM.
For `Cc1ccc(N/N=C2\C(=O)N(c3ccccc3)N=C2C(F)(F)F)cc1` [5f, (4Z)-4-[2-(4-Methylphenyl)hydrazinylidene]-2-phenyl-5-(trifluoromethyl)-2,4-dihydro-3H-pyrazol-3-one], the “acute phototoxicity during cell visualization” value (Vero cells) was “No acute phototoxicity”, the “Inhibition of Paw Edema Development Comparing to Control, after 5 h” value (Sprague-Dawley rats; dose 15 mg/kg, n.a. = inactive) was 30.9 * % and the “αKi (non-competitive inhibition constant), CES” value [2] was 0.735 ± 0.007 µM.
With `CS(=O)(=O)c1ccc(N/N=C2\C(=O)N(c3ccccc3)N=C2C(F)(F)F)cc1` [5m, (4Z)-4-(2-[4-(Methylsulfonyl)phenyl]hydrazinylidene)-2-phenyl-5-(trifluoromethyl)-2,4-dihydro-3H-pyrazol-3-one] the “Inhibition of Paw Edema Development Comparing to Control, after 1 h” value (Sprague-Dawley rats; dose 25 mg/kg) was 49.0 ** %, the “Inhibition of Paw Edema Development Comparing to Control, after 3 h” value (Sprague-Dawley rats; dose 25 mg/kg) was 44.3 * % and the “Inhibition of Paw Edema Development Comparing to Control, after 5 h” value (Sprague-Dawley rats; dose 25 mg/kg) was 35.3 * %.
In the case of `Cc1ccc(N/N=C2\C(=O)NN=C2C(F)(F)C(F)(F)F)cc1` [6a, (4Z)-4-[2-(4-Methylphenyl)hydrazinylidene]-5-(pentafluoroethyl)-2,4-dihydro-3H-pyrazol-3-one], the “acute phototoxicity during cell visualization” value (Vero cells) is reported as “No acute phototoxicity” and the “FRAP” value [1] is reported as 0.15 ± 0.02.
In the case of `CC1=NNC(=O)/C1=N\Nc1ccc(C)cc1` [9a, (4Z)-5-Methyl-4-[2-(4-methylphenyl)hydrazinylidene]-2,4-dihydro-3H-pyrazol-3-one], the “acute phototoxicity during cell visualization” value (Vero cells) is reported as “No acute phototoxicity” and the “FRAP” value [1] is reported as 0.51 ± 0.01.
In the case of `CC1=NN(c2ccccc2)C(=O)/C1=N\Nc1ccc(C)cc1` [9b, (4Z)-5-Methyl-4-[2-(4-methylphenyl)hydrazinylidene]-2-phenyl-2,4-dihydro-3H-pyrazol-3-one], the “FRAP” value [1] is reported as 0.11 ± 0.01.
